Molecules are shown by their SMILES. Starred links: 1 amine or outer side, 2 acyl side, 3 side chain; linkers in the order of their positions; H or OH if unused. Positions of bridges follow the written chain, without caps; N, C: chain ends. Non-standard residues stand in square brackets, D forms with d. Residues, ends and D or L forms follow the SMILES beside them. ξ: configuration not given here. Bip = N[C@@H](Cc1ccc(-c2ccccc2)cc1)C(=O)O; X1 = O=C([C@H](Cc1ccn[nH]1)N[*:1])[*:2]; Phe(3-Me) = Cc1cccc(C[C@H](N)C(=O)O)c1; NMeY = CN[C@@H](Cc1ccc(O)cc1)C(=O)O; hTyr = N[C@@H](CCc1ccc(O)cc1)C(=O)O; NMeF = CN[C@@H](Cc1ccccc1)C(=O)O; Cha = N[C@@H](CC1CCCCC1)C(=O)O; Cit = NC(=O)NCCC[C@H](N)C(=O)O; NMeA = CN[C@@H](C)C(=O)O; Orn = NCCC[C@H](N)C(=O)O; Dab = NCC[C@H](N)C(=O)O; ξV = CC(C)C(N)C(=O)O; ξS = NC(CO)C(=O)O; Sar = CNCC(=O)O

This test has as its target T1, human PD-1 (Jurkat-PD-1 cells) / PE-labeled human PD-L1-Ig (Homo sapiens, UniProt Q15116).
T1 construct: expressed in transfected cells; host or cells: Jurkat cell line over-expressing human PD-1
Description: Jurkat-PD-1 Cell Binding High-Content Screening Assay (CBA); Jurkat hPD1-PDL1 assay. The settings on record: Jurkat cell line over-expressing human PD-1; PE-labeled PD-L1-Ig 20 nM final; compound incubated 2 hours at 37° C.; read-out: Jurkat HPD1-PDL1 IC50. A digest of the protocol: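 Jurkat cells over-expressing human PD-1, seeded in DMEM with 10% fetal calf serum, were preincubated with compound for 2 hours at 37° C. PE-labeled human PD-L1-Ig was then added at 20 nM final, and cell-bound fluorescence was read by high-content imaging.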

T1 sequence (Q15116 25-288): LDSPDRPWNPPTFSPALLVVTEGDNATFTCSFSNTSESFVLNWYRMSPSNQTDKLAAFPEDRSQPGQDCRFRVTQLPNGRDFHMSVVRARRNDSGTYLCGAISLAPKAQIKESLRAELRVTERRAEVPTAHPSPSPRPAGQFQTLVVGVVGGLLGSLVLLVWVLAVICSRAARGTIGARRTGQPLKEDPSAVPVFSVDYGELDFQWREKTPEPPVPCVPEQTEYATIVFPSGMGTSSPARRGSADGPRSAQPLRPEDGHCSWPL

As a reminder, the IC50 is the concentration that inhibits the measured activity by half. With `CC(C)C[C@@H]1NC(=O)[C@H](CCCCN)NC(=O)[C@H](Cc2ccccc2)N(C)C(=O)[C@H](C)N(C)C(=O)[C@H](CCCNC(=N)N)NC(=O)[C@H](Cc2ccc(-c3ccccc3)cc2)NC(=O)[C@H](C(C)C)NC(=O)[C@H](Cc2c[nH]c3ccccc23)NC(=O)[C@H](CC(=O)O)NC(=O)[C@H](Cc2ccc(O)cc2)NC(=O)[C@H](Cc2ccccc2)NC(=O)CSC[C@@H](C(=O)N[C@@H](CO)C(N)=O)NC(=O)[C@H]([C@@H](C)O)NC(=O)[C@H](C(C)C)NC1=O` [Example 1359] ({CH2CO}-FYDWV[Bip]R[NMeA][NMeF]KLVTCS-NH2; thioether N-14), the 50% inhibitory concentration (IC50) stood at 270 nM.
As to `CC(C)C[C@@H]1NC(=O)[C@H](Cc2c[nH]c3ccccc23)NC(=O)[C@H](CC(=O)O)NC(=O)[C@H](Cc2ccc(O)cc2)NC(=O)[C@H](Cc2ccccc2)NC(=O)CSC[C@@H](C(=O)N[C@@H](C)C(N)=O)NC(=O)[C@H]([C@@H](C)O)NC(=O)[C@H](C(C)C)NC(=O)[C@H](CC(C)C)NC(=O)[C@H](CC(N)=O)NC(=O)[C@H]2CCCN2C(=O)[C@H](CCCN)NC(=O)[C@H](C(C)C)NC(=O)[C@H](Cc2ccc(-c3ccccc3)cc2)NC1=O` [Example 1418] ({CH2CO}-FYDWL[Bip]V[Orn][dP]NLVTCA-NH2; thioether N-14), the concentration for half-maximal inhibition (IC50) turned out to be 210 nM.
Under `Cc1cccc(C[C@@H]2NC(=O)[C@H](CC(=O)O)NC(=O)[C@H](Cc3ccc(O)cc3)NC(=O)[C@H](CC(N)=O)NC(=O)CSC[C@@H](C(=O)N[C@@H](C)C(N)=O)NC(=O)[C@H]([C@@H](C)O)NC(=O)[C@H](C(C)C)NC(=O)[C@H](CC3CCCCC3)NC(=O)[C@H](CCN)NC(=O)[C@H](Cc3ccccc3)N(C)C(=O)[C@H](CCCN)NC(=O)[C@H](CCC(=O)O)NC(=O)[C@H](Cc3ccc(-c4ccccc4)cc3)NC(=O)C(C(C)C)NC2=O)c1` (stereo partly drawn) [Example 1447] ({CH2CO}-NYD[Phe(3-Me)][ξV][Bip]E[Orn][NMeF][Dab][Cha]VTCA-NH2; thioether N-14) stands 30 nM; under `CC(C)C[C@@H]1NC(=O)[C@H](CCCNC(=N)N)NC(=O)[C@H](Cc2ccc(O)cc2)N(C)C(=O)[C@H](C)N(C)C(=O)[C@H](CCCNC(=N)N)NC(=O)[C@H](Cc2ccc(-c3ccccc3)cc2)NC(=O)[C@H](C(C)C)NC(=O)[C@H](Cc2c[nH]c3ccccc23)NC(=O)[C@H](CC(=O)O)NC(=O)[C@H](Cc2ccc(O)cc2)NC(=O)[C@H](Cc2ccccc2)NC(=O)CSC[C@@H](C(=O)NCC(N)=O)NC(=O)[C@H](CO)NC(=O)[C@H](C(C)C)NC1=O` [Example 1280] ({CH2CO}-FYDWV[Bip]R[NMeA][NMeY]RLVSCG-NH2; thioether N-14), 500 nM.
As to `CC(C)C[C@@H]1NC(=O)[C@H](Cc2c[nH]c3ccccc23)NC(=O)[C@H](CC(=O)O)NC(=O)[C@H](Cc2ccc(O)cc2)NC(=O)[C@H](Cc2ccccc2)NC(=O)CSC[C@@H](C(=O)NCC(N)=O)NC(=O)[C@H](CO)NC(=O)[C@H](C(C)C)NC(=O)[C@H](CC(C)C)NC(=O)[C@H](CCN)NC(=O)[C@H]2CCCN2C(=O)[C@H](CCCN)NC(=O)[C@H](C(C)C)NC(=O)[C@H](Cc2ccc(-c3ccccc3)cc2)NC1=O` [Example 1423] ({CH2CO}-FYDWL[Bip]V[Orn][dP][Dab]LVSCG-NH2; thioether N-14), the half-maximal inhibitory concentration (IC50) was 100 nM.
The figure for `CC(C)C[C@@H]1NC(=O)[C@H](Cc2c[nH]c3ccccc23)NC(=O)[C@H](CC(=O)O)NC(=O)[C@H](Cc2ccc(O)cc2)NC(=O)[C@H](Cc2ccccc2)NC(=O)CSC[C@@H](C(=O)NCC(N)=O)NC(=O)C(CO)NC(=O)[C@H](C(C)C)NC(=O)[C@H](CC(C)C)NC(=O)[C@H](CC(N)=O)NC(=O)[C@H]2CCCN2C(=O)[C@H](CCCN)NC(=O)[C@H](C(C)C)NC(=O)[C@H](Cc2ccc(-c3ccccc3)cc2)NC1=O` (stereo partly drawn) [Example 1419] ({CH2CO}-FYDWL[Bip]V[Orn][dP]NLV[ξS]CG-NH2; thioether N-14) is 120 nM.
Under `CC(C)C[C@@H]1NC(=O)[C@H](Cc2c[nH]c3ccccc23)NC(=O)[C@H](CC(=O)O)NC(=O)[C@H](Cc2ccc(O)cc2)NC(=O)[C@H](Cc2ccccc2)NC(=O)CSC[C@@H](C(=O)N[C@@H](C)C(N)=O)NC(=O)[C@H](CO)NC(=O)[C@H](C(C)C)NC(=O)[C@H](CC(C)C)NC(=O)[C@H](CC(N)=O)NC(=O)[C@H]2CCCN2C(=O)[C@H](C)N(C)C(=O)[C@H](CCC(=O)O)NC(=O)[C@H](Cc2ccc(-c3ccccc3)cc2)NC1=O` [Example 1039] ({CH2CO}-FYDWL[Bip]E[NMeA][dP]NLVSCA-NH2; thioether N-14) stands 70 nM.
The figure for `CC(C)C[C@@H]1NC(=O)[C@H](CCCNC(=N)N)NC(=O)[C@H](Cc2ccccc2)N(C)C(=O)[C@H](C)N(C)C(=O)[C@H](CCCNC(N)=O)NC(=O)[C@H](Cc2ccc(-c3ccccc3)cc2)NC(=O)[C@H](C(C)C)NC(=O)[C@H](Cc2c[nH]c3ccccc23)NC(=O)[C@H](CC(=O)O)NC(=O)[C@H](Cc2ccc(O)cc2)NC(=O)[C@H](CC(N)=O)NC(=O)CSC[C@@H](C(=O)N[C@@H](C)C(N)=O)NC(=O)[C@H](CCCN)NC(=O)[C@H](C(C)C)NC1=O` [Example 1371] ({CH2CO}-NYDWV[Bip][Cit][NMeA][NMeF]RLV[Orn]CA-NH2; thioether N-14) is 230 nM; for `CC(C)C[C@@H]1NC(=O)[C@H](Cc2c[nH]c3ccccc23)NC(=O)[C@H](CC(=O)O)NC(=O)[C@H](CCc2ccc(O)cc2)NC(=O)[C@H](Cc2ccccc2)NC(=O)CSC[C@@H](C(=O)N[C@@H](C)C(N)=O)NC(=O)[C@H](CO)NC(=O)[C@H](C(C)C)NC(=O)[C@H](CC(C)C)NC(=O)[C@H](CC(N)=O)NC(=O)CN(C)C(=O)[C@H](C)N(C)C(=O)[C@H](C(C)C)NC(=O)[C@H](Cc2ccc(-c3ccccc3)cc2)NC1=O` [Example 1086] ({CH2CO}-F[hTyr]DWL[Bip]V[NMeA][Sar]NLVSCA-NH2; thioether N-14) it is 250 nM.
On to `CC(C)C[C@@H]1NC(=O)[C@H](CCCNC(=N)N)NC(=O)[C@H](Cc2ccccc2)N(C)C(=O)[C@H](C)N(C)C(=O)[C@H](CCCNC(=N)N)NC(=O)[C@H](Cc2ccc(-c3ccccc3)cc2)NC(=O)[C@H](C(C)C)NC(=O)[C@H](Cc2c[nH]c3ccccc23)NC(=O)[C@H](CC(=O)O)NC(=O)[C@H](Cc2ccc(O)cc2)NC(=O)[C@H](Cc2cnc[nH]2)NC(=O)CSC[C@@H](C(=O)N[C@@H](C)C(N)=O)NC(=O)[C@H]([C@@H](C)O)NC(=O)[C@H](C(C)C)NC1=O` [Example 1324] ({CH2CO}-HYDWV[Bip]R[NMeA][NMeF]RLVTCA-NH2; thioether N-14), for which the half-maximal inhibitory concentration (IC50) is 270 nM.
The figure for `CC(C)C[C@@H]1NC(=O)[C@H](CCCNC(=N)N)NC(=O)[C@H](Cc2ccccc2)N(C)C(=O)[C@H](C)N(C)C(=O)[C@H](CCCN)NC(=O)[C@H](Cc2ccc(-c3ccccc3)cc2)NC(=O)[C@H](C(C)C)NC(=O)[C@H](Cc2c[nH]c3ccccc23)NC(=O)[C@H](CC(=O)O)NC(=O)[C@H](Cc2ccc(O)cc2)NC(=O)[C@H](Cc2ccccc2)NC(=O)CSC[C@@H](C(=O)NCC(N)=O)NC(=O)[C@H](CO)NC(=O)[C@H](C(C)C)NC1=O` [Example 1243] ({CH2CO}-FYDWV[Bip][Orn][NMeA][NMeF]RLVSCG-NH2; thioether N-14) is 60 nM; for `CC(C)C[C@@H]1NC(=O)[C@H](CCCNC(=N)N)NC(=O)CN(C)C(=O)[C@H](C)N(C)C(=O)[C@H](C(C)C)NC(=O)[C@H](Cc2ccc(-c3ccccc3)cc2)NC(=O)[C@H](Cc2ccc(O)cc2)NC(=O)[C@H](Cc2c[nH]c3ccccc23)NC(=O)[C@H](CC(=O)O)NC(=O)[C@H](Cc2ccc(O)cc2)NC(=O)[C@H](Cc2ccccc2)NC(=O)CSC[C@@H](C(=O)NCC(N)=O)NC(=O)[C@H](CO)NC(=O)[C@H](C(C)C)NC1=O` [Example 1236] ({CH2CO}-FYDWY[Bip]V[NMeA][Sar]RLVSCG-NH2; thioether N-14) it is 440 nM; for `CC(C)C[C@@H]1NC(=O)[C@H](Cc2c[nH]c3ccccc23)NC(=O)[C@H](CC(=O)O)NC(=O)[C@H](Cc2ccc(O)cc2)NC(=O)[C@H](Cc2ccn[nH]2)NC(=O)CSC[C@@H](C(=O)N[C@@H](C)C(N)=O)NC(=O)[C@H](CO)NC(=O)[C@H](C(C)C)NC(=O)[C@H](CC(C)C)NC(=O)[C@H](CC(N)=O)NC(=O)CN(C)C(=O)[C@H](C)N(C)C(=O)[C@H](C(C)C)NC(=O)[C@H](Cc2ccc(-c3ccccc3)cc2)NC1=O` [Example 1094] ({CH2CO}-[X1]YDWL[Bip]V[NMeA][Sar]NLVSCA-NH2; thioether N-14) it is 280 nM.
The figure for `CC(C)C[C@@H]1NC(=O)[C@H](Cc2c[nH]c3ccccc23)NC(=O)[C@H](CC(=O)O)NC(=O)[C@H](Cc2ccccc2)NC(=O)[C@H](Cc2ccccc2)NC(=O)CSC[C@@H](C(=O)N[C@@H](C)C(N)=O)NC(=O)[C@H](CO)NC(=O)[C@H](C(C)C)NC(=O)[C@H](CC(C)C)NC(=O)[C@H](CC(N)=O)NC(=O)CN(C)C(=O)[C@H](C)N(C)C(=O)[C@H](C(C)C)NC(=O)[C@H](Cc2ccc(-c3ccccc3)cc2)NC1=O` [Example 1165] ({CH2CO}-FFDWL[Bip]V[NMeA][Sar]NLVSCA-NH2; thioether N-14) is 900 nM.
Under `CC[C@H](C)[C@@H]1NC(=O)[C@H](CC(C)C)NC(=O)[C@H](CC(N)=O)NC(=O)CN(C)C(=O)[C@H](C)N(C)C(=O)[C@H](C(C)C)NC(=O)[C@H](Cc2ccc(-c3ccccc3)cc2)NC(=O)[C@H](CC(C)C)NC(=O)[C@H](Cc2c[nH]c3ccccc23)NC(=O)[C@H](CC(=O)O)NC(=O)[C@H](Cc2ccc(O)cc2)NC(=O)[C@H](Cc2ccccc2)NC(=O)CSC[C@@H](C(=O)NCC(N)=O)NC(=O)[C@H](CO)NC1=O` [Example 1142] ({CH2CO}-FYDWL[Bip]V[NMeA][Sar]NLISCG-NH2; thioether N-14) stands 610 nM.

These data come from patent US20240360178A1, “MACROCYCLIC IMMUNOMODULATORS” (Bristol-Myers Squibb Company, priority 2021, published 2024).
